Values after ≈ are worked out from the molar mass of the structure shown.
Tests used:
[1] = test system: Mycobacterium tuberculosis; assay: Antimycobacterial activity against Mycobacterium tuberculosis DprE1 C387S assessed as inhibition of bacterial growth incubated for 7 days by microplate alamar blue assay; format: functional; details: time 7 day
[2] = Inhibition of Mycobacterium tuberculosis DprE1 C387A mutant expressed in Escherichia coli BL21 DE3 assessed as formation of resorufin using FPR as substrate incubated for 10 mins by Amplex Red dye microplate assay
[3] = test system: Mycobacterium tuberculosis; assay: Antimycobacterial activity against multidrug-resistant Mycobacterium tuberculosis clinical isolate HD1 assessed as inhibition of bacterial growth incubated for 7 days by microplate alamar blue assay; format: functional; details: Clinical isolate HD1, 168 h, time 7 day
[4] = Inhibition of Mycobacterium tuberculosis DprE1 C387S mutant expressed in Escherichia coli BL21 DE3 assessed as formation of resorufin using FPR as substrate incubated for 10 mins by Amplex Red dye microplate assay
[5] = test system: Mycobacterium tuberculosis; assay: Antimycobacterial activity against rifampin resistant Mycobacterium tuberculosis H37Rv assessed as reduction in bacterial colony forming units at 20 times MIC concentration measured after 21 days by time kill assay; format: functional; details: time 21 day
[6] = Inhibition of Mycobacterium tuberculosis DprE1 Y314A mutant expressed in Escherichia coli BL21 DE3 assessed as formation of resorufin using FPR as substrate incubated for 10 mins by Amplex Red dye microplate assay
[7] = test system: Mycobacterium tuberculosis; assay: Antimycobacterial activity against multidrug-resistant Mycobacterium tuberculosis clinical isolate HD4 assessed as inhibition of bacterial growth incubated for 7 days by microplate alamar blue assay; format: functional; details: Clinical isolate HD4, 168 h, time 7 day
[8] = test system: Mycobacterium tuberculosis; assay: Antimycobacterial activity against multidrug-resistant Mycobacterium tuberculosis clinical isolate HD5 assessed as inhibition of bacterial growth incubated for 7 days by microplate alamar blue assay; format: functional; details: Clinical isolate HD5, 168 h, time 7 day
[9] = test system: Mycobacterium tuberculosis; assay: Antimycobacterial activity against rifampin resistant Mycobacterium tuberculosis H37Rv assessed as inhibition of bacterial growth incubated for 7 days by microplate alamar blue assay; format: functional; details: 168 h, time 7 day
[10] = test system: Mycobacterium tuberculosis; assay: Antimycobacterial activity against multidrug-resistant Mycobacterium tuberculosis clinical isolate HD3 assessed as inhibition of bacterial growth incubated for 7 days by microplate alamar blue assay; format: functional; details: Clinical isolate HD3, 168 h, time 7 day
[11] = Inhibition of Mycobacterium tuberculosis DprE1 K418A mutant expressed in Escherichia coli BL21 DE3 assessed as formation of resorufin using FPR as substrate incubated for 10 mins by Amplex Red dye microplate assay
[12] = test system: Mycobacterium tuberculosis; assay: Antimycobacterial activity against multidrug-resistant Mycobacterium tuberculosis clinical isolate HD2 assessed as inhibition of bacterial growth incubated for 7 days by microplate alamar blue assay; format: functional; details: Clinical isolate HD2, 168 h, time 7 day

| SMILES | MIC [1] | IC50 [2] | MIC [3] | IC50 [4] | Activity [5] | IC50 [6] | MIC [7] | MIC [8] | MIC [9] | MIC [10] | IC50 [11] | MIC [12] |
| --- | --- | --- | --- | --- | --- | --- | --- | --- | --- | --- | --- | --- |
| CCOC(=O)NC(=O)c1ccsc1NC(=O)c1nc2ccccc2s1 | 6.65 µM (≈ 2.5 µg/mL) | 44 µM | 4.15 µM (≈ 1.56 µg/mL) | 5.79 µM | 3.5 log10CFU/ml | 0.11 µM | 8.33 µM (≈ 3.13 µg/mL) | 8.33 µM (≈ 3.13 µg/mL) | 3.32 µM (≈ 1.25 µg/mL) | 2.07 µM (≈ 0.777 µg/mL) | 65 µM | 8.33 µM (≈ 3.13 µg/mL) |
| COc1nc2ccc(Br)cc2cc1[C@@H](c1ccccc1)[C@@](O)(CCN(C)C)c1cccc2ccccc12 [BEDAQUILINE] | – | – | 0.07 µM (≈ 0.0389 µg/mL) | – | – | – | 0.58 µM (≈ 0.322 µg/mL) | 0.07 µM (≈ 0.0389 µg/mL) | – | 0.14 µM (≈ 0.0778 µg/mL) | – | 0.29 µM (≈ 0.161 µg/mL) |
| O=C(NC(=O)c1ccsc1NC(=O)c1nc2ccccc2s1)OCC1CCC1 | – | – | 1.88 µM (≈ 0.781 µg/mL) | – | – | – | 3.76 µM (≈ 1.56 µg/mL) | 3.76 µM (≈ 1.56 µg/mL) | 6.01 µM (≈ 2.5 µg/mL) | 1.88 µM (≈ 0.781 µg/mL) | – | 3.76 µM (≈ 1.56 µg/mL) |
| CO[C@H]1/C=C/O[C@@]2(C)Oc3c(C)c(O)c4c(O)c(c(/C=N/N5CCN(C)CC5)c(O)c4c3C2=O)NC(=O)/C(C)=C\C=C\[C@H](C)[C@H](O)[C@@H](C)[C@@H](O)[C@@H](C)[C@H](OC(C)=O)[C@@H]1C [RIFAMPIN] | 0.35 µM (≈ 0.288 µg/mL) | – | 1.9 µM (≈ 1.56 µg/mL) | – | – | – | 1.9 µM (≈ 1.56 µg/mL) | 3.82 µM (≈ 3.14 µg/mL) | 1.13 µM (≈ 0.93 µg/mL) | 0.95 µM (≈ 0.782 µg/mL) | – | 3.82 µM (≈ 3.14 µg/mL) |
| NNC(=O)c1ccncc1 [ISONIAZID] | – | – | 18.2 µM (≈ 2.5 µg/mL) | – | – | – | 18.2 µM (≈ 2.5 µg/mL) | 36.5 µM (≈ 5 µg/mL) | – | 9.11 µM (≈ 1.25 µg/mL) | – | 36.5 µM (≈ 5 µg/mL) |
| O=C(NC(=O)c1ccsc1NC(=O)c1nc2ccccc2s1)OCC1CC1 | 1.57 µM (≈ 0.63 µg/mL) | 0.069 µM | 1.94 µM (≈ 0.779 µg/mL) | 0.059 µM | 3.5 log10CFU/ml | 0.029 µM | 1.94 µM (≈ 0.779 µg/mL) | 1.94 µM (≈ 0.779 µg/mL) | 1.57 µM (≈ 0.63 µg/mL) | 0.97 µM (≈ 0.389 µg/mL) | 8.93 µM | 3.88 µM (≈ 1.56 µg/mL) |
| CC(=O)c1ccc(C(=O)Nc2sccc2C(=O)NC(=O)OCC2CC2)cc1 | – | 3.33 µM | – | 3.98 µM | – | – | – | – | – | – | – | – |

— ChEMBL document CHEMBL5143519, “Exploring disordered loops in DprE1 provides a functional site to combat drug-resistance in Mycobacterium strains” (Eur J Med Chem, 2022)
